Data taken from ChEMBL document CHEMBL1201862, “PubChem BioAssay data set” (2004).
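Test compounds were applied to cells in 96-well plates for 48 hours at 5 doses. GI50 marks 50% less growth.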 Activity calls are given as the source filed them. Rule as the data show it: active = GI50 up to about 1.1 µM and inactive = higher.

Assays:
Assay in all cases: inhibition of tumour cell growth, NCI panel, 48 h
A549 = system: A549
RXF 393 = system: RXF 393
KM-20L2 = system: KM-20L2
K562 = system: K562
SF-539 = system: SF-539
NCI-H460 = system: NCI-H460
SK-MEL-2 = system: SK-MEL-2
LOX IMVI = system: LOX IMVI
NCI-H226 = system: NCI-H226
UACC-62 = system: UACC-62
NCI-H23 = system: NCI-H23
HOP-92 = system: HOP-92
SF-268 = system: SF-268
CAKI-1 = system: CAKI-1
HCT-15 = system: HCT-15
BT-549 = system: BT-549
Hs-578T = system: Hs-578T
MDA-MB-435 = system: MDA-MB-435
DU-145 = system: DU-145
PC-3 = system: PC-3

| Structure (SMILES) | GI50 (A549) | GI50 (RXF 393) | GI50 (KM-20L2) | GI50 (K562) | GI50 (SF-539) | GI50 (NCI-H460) | GI50 (SK-MEL-2) | GI50 (LOX IMVI) | GI50 (NCI-H226) | GI50 (UACC-62) | GI50 (NCI-H23) | GI50 (HOP-92) | GI50 (SF-268) | GI50 (CAKI-1) | GI50 (HCT-15) [µM] | GI50 (BT-549) | GI50 (Hs-578T) | GI50 (MDA-MB-435) | GI50 (DU-145) | GI50 (PC-3) |
| --- | --- | --- | --- | --- | --- | --- | --- | --- | --- | --- | --- | --- | --- | --- | --- | --- | --- | --- | --- | --- |
| Cc1ncc(CCl)c2c1OC(C)(C)OC2 | > 100 µM (inactive) | 16 µM (inactive) | > 100 µM (inactive) | 41.2 µM (inactive) | 33.6 µM (inactive) | > 100 µM (inactive) | > 100 µM (inactive) | 17.3 µM (inactive) | > 100 µM (inactive) | > 100 µM (inactive) | > 100 µM (inactive) | 32.2 µM (inactive) | 22.8 µM (inactive) |  |  |  |  |  |  |  |
| Cn1sc2ccccc2c1=S | 13.9 µM (inactive) | 3.08 µM (inactive) | 13.7 µM (inactive) | 3.71 µM (inactive) | 5.83 µM (inactive) | 13.8 µM (inactive) | 20 µM (inactive) | 1.78 µM (inactive) | 23.2 µM (inactive) | 5.78 µM (inactive) | 11.7 µM (inactive) | 16.6 µM (inactive) | 3.5 µM (inactive) | 11.7 µM (inactive) | 5.5 |  |  |  |  |  |
| COc1ccc(C(=O)c2c(C(C(=O)c3ccc(OC)cc3)C(=O)c3ccc(OC)cc3)n(C(=O)c3ccc(OC)cc3)c3ccccc23)cc1 | > 100 µM (inactive) | > 100 µM (inactive) | > 100 µM (inactive) | > 100 µM (inactive) | > 100 µM (inactive) | > 100 µM (inactive) | > 100 µM (inactive) | > 100 µM (inactive) | > 100 µM (inactive) | > 100 µM (inactive) | > 100 µM (inactive) | > 100 µM (inactive) | > 100 µM (inactive) | > 100 µM (inactive) | > 100 |  |  |  |  |  |
| CCCCOC(=O)NC(=O)c1cn(CCCOC(=O)CCCCCCCCC(=O)OCCCn2cc(C(=O)NC(=O)OCCCC)c(=O)n(C)c2=O)c(=O)n(C)c1=O | > 100 µM (inactive) | > 100 µM (inactive) | > 100 µM (inactive) | > 100 µM (inactive) | > 100 µM (inactive) | > 100 µM (inactive) | > 100 µM (inactive) |  | > 100 µM (inactive) | > 100 µM (inactive) | > 100 µM (inactive) | > 100 µM (inactive) | > 100 µM (inactive) | > 100 µM (inactive) | > 100 |  |  |  |  |  |
| CC(C)=CCC/C(C)=C/Cc1c(O)ccc2c1[nH]c1cc(O)c(C)cc12 | 8.87 µM (inactive) | 14 µM (inactive) | 13.4 µM (inactive) | 9.38 µM (inactive) | 6.95 µM (inactive) | 11.9 µM (inactive) | > 25 µM (inactive) | 8.36 µM (inactive) | 15.6 µM (inactive) | 16.9 µM (inactive) |  | > 25 µM (inactive) | 10.7 µM (inactive) |  | 9.71 |  |  |  |  |  |
| Cc1nc(Nc2ccc(Cl)cc2)sc1C(=O)NNc1ccc([N+](=O)[O-])cc1[N+](=O)[O-] | 16.6 µM (inactive) | 16.3 µM (inactive) | 16.2 µM (inactive) | 16.8 µM (inactive) | 17.3 µM (inactive) | 18 µM (inactive) | 17.9 µM (inactive) | 15.1 µM (inactive) | 15.7 µM (inactive) | 14.3 µM (inactive) | 17.3 µM (inactive) | 23.6 µM (inactive) | 18.7 µM (inactive) | 23.6 µM (inactive) |  |  |  |  |  |  |
| Cc1cc(=O)oc2c(C3=NN(C=O)C(c4ccccc4)C3)c(O)ccc12 (centres undefined) | 20.8 µM (inactive) | 38.2 µM (inactive) | > 100 µM (inactive) | > 91 µM (inactive) | 52.4 µM (inactive) | 73.3 µM (inactive) | 52.5 µM (inactive) | > 72.4 µM (inactive) | > 76 µM (inactive) | 82.2 µM (inactive) | 85.9 µM (inactive) | 23 µM (inactive) | 31.6 µM (inactive) | > 72.1 µM (inactive) | > 78.5 | 65.6 µM (inactive) | 31.2 µM (inactive) | > 65.9 µM (inactive) | > 100 µM (inactive) | > 74.1 µM (inactive) |
| CC/C=C/c1cc2c(c3[nH]ccc13)[C@@H](C)CC2C.CC/C=C/c1cc2cc[nH]c2c2c1C(C)C[C@@H]2C.CCc1cc2c(c3[nH]ccc13)[C@@H](C)CC2C (some centres undefined) | 21.4 µM (inactive) | 12.2 µM (inactive) | 14.8 µM (inactive) |  | 16.1 µM (inactive) | 15.2 µM (inactive) | 15.4 µM (inactive) | 15.6 µM (inactive) | 15.2 µM (inactive) |  | 17.4 µM (inactive) |  | 15.5 µM (inactive) | 15.1 µM (inactive) |  |  |  |  |  |  |
| CCOC(=O)C(C)Sc1nnc(COc2ccccc2OC)n1-c1ccccc1 (centres undefined) | > 100 µM (inactive) | 52.4 µM (inactive) | > 100 µM (inactive) | 30.1 µM (inactive) | > 100 µM (inactive) | 18.3 µM (inactive) | > 100 µM (inactive) | 15.7 µM (inactive) | > 100 µM (inactive) | > 100 µM (inactive) | > 100 µM (inactive) | 49.1 µM (inactive) | > 100 µM (inactive) | > 100 µM (inactive) | 16.9 |  |  |  |  |  |
| Cc1nc(C(=O)O)c2ccccc2n1 | > 100 µM (inactive) | > 100 µM (inactive) | > 100 µM (inactive) | > 100 µM (inactive) | > 100 µM (inactive) | > 100 µM (inactive) | > 100 µM (inactive) |  |  | > 100 µM (inactive) | > 100 µM (inactive) | > 100 µM (inactive) | > 100 µM (inactive) | > 100 µM (inactive) |  |  |  |  |  |  |
| O=C1OC(CC(=O)c2ccc(Cl)c(Cl)c2)C(Cl)=C1Cl (centres undefined) | > 100 µM (inactive) | > 100 µM (inactive) | > 100 µM (inactive) | 38.8 µM (inactive) | 74.5 µM (inactive) | > 100 µM (inactive) | > 100 µM (inactive) | > 100 µM (inactive) | 68.9 µM (inactive) | > 100 µM (inactive) | > 100 µM (inactive) |  | > 100 µM (inactive) | > 100 µM (inactive) | > 100 |  |  |  |  |  |
| O=c1[nH]c(=O)n(C2OC(CO)C(O)C2O)cc1/N=N/NCc1ccccc1 (centres undefined) | > 100 µM (inactive) | > 79.4 µM (inactive) | > 100 µM (inactive) | > 71.9 µM (inactive) | > 100 µM (inactive) | > 69.2 µM (inactive) | > 100 µM (inactive) | > 63.8 µM (inactive) | > 100 µM (inactive) | > 100 µM (inactive) | > 100 µM (inactive) | > 100 µM (inactive) | > 100 µM (inactive) | > 100 µM (inactive) | > 65 |  |  |  |  |  |
| CCCCCCCC(=O)OCC1OC(n2cc(F)c(=O)[nH]c2=O)C(N)C(OC(=O)CCCCCCC)C1O (centres undefined) | 18.3 µM (inactive) | 18 µM (inactive) | 18.9 µM (inactive) |  | 20.5 µM (inactive) | 19.4 µM (inactive) | 18.8 µM (inactive) | 18.5 µM (inactive) |  | 17.8 µM (inactive) | 20.1 µM (inactive) | 18.4 µM (inactive) | 18.5 µM (inactive) | 16.8 µM (inactive) | 18.5 |  |  |  |  |  |
| CC(=O)OCc1ncccc1C(OC(C)=O)OC(C)=O | > 100 µM (inactive) | > 100 µM (inactive) | > 100 µM (inactive) | > 100 µM (inactive) | > 100 µM (inactive) | > 100 µM (inactive) | > 100 µM (inactive) | > 100 µM (inactive) |  | > 100 µM (inactive) | > 100 µM (inactive) | > 100 µM (inactive) | > 100 µM (inactive) | > 100 µM (inactive) | > 100 |  |  |  |  |  |
| [O-][S+](Cc1cc2c(cc1Br)OCO2)c1ccccc1 (centres undefined) | > 100 µM (inactive) | 40.6 µM (inactive) | 71.4 µM (inactive) | 27.5 µM (inactive) | 32.7 µM (inactive) | 41.4 µM (inactive) | > 100 µM (inactive) | 15.7 µM (inactive) | > 100 µM (inactive) | 33.4 µM (inactive) | 68.2 µM (inactive) | 83.9 µM (inactive) | 59.2 µM (inactive) | 51.5 µM (inactive) | 34.4 |  |  |  |  |  |
| CCN(CC)C1CC(O[C@H]2C[C@](O)(C(=O)CO)Cc3c(O)c4c(c(O)c32)C(=O)c2c(OC)cccc2C4=O)OC(C)C1O (some centres undefined) | 0.0395 µM (active) | 0.0446 µM (active) | 0.0733 µM (active) | 0.0264 µM (active) | 0.0461 µM (active) | < 0.019 µM (active) | 0.067 µM (active) | < 0.0259 µM (active) | 0.019 µM (active) | 0.0431 µM (active) | 0.0491 µM (active) | 0.0522 µM (active) | 0.047 µM (active) | 0.232 µM (active) | 0.245 |  |  |  |  |  |
| Cc1nc(-c2ccccc2)cc2c1c(=O)oc1ccccc12 | > 100 µM (inactive) | > 100 µM (inactive) | > 100 µM (inactive) | > 100 µM (inactive) | > 100 µM (inactive) | > 100 µM (inactive) | > 100 µM (inactive) |  | > 100 µM (inactive) | 46.8 µM (inactive) | > 100 µM (inactive) | > 100 µM (inactive) | > 100 µM (inactive) | > 100 µM (inactive) | > 100 |  |  |  |  |  |
| CN(C)CCN1CCc2c([nH]c3ccccc23)C1c1cccnc1 (centres undefined) | > 100 µM (inactive) | 20.2 µM (inactive) | > 100 µM (inactive) | > 100 µM (inactive) | > 100 µM (inactive) | > 100 µM (inactive) |  |  |  | > 100 µM (inactive) | > 100 µM (inactive) | 63.7 µM (inactive) | > 100 µM (inactive) | > 100 µM (inactive) | > 100 |  |  |  |  |  |
| CC1CCC2[C@@H](C)COC3O[C@]4(C)CCC1C32OO4 (some centres undefined) | > 100 µM (inactive) | > 100 µM (inactive) | > 100 µM (inactive) | 38.9 µM (inactive) | > 100 µM (inactive) | > 100 µM (inactive) | > 100 µM (inactive) | > 100 µM (inactive) | > 100 µM (inactive) | > 100 µM (inactive) | > 100 µM (inactive) | > 100 µM (inactive) | > 100 µM (inactive) | > 100 µM (inactive) | > 100 |  |  |  |  |  |
